Laboratory results from patent US11377442B2, “Small molecule agonists and antagonists of NR2F6 activity” (ZANDER THERAPEUTICS, INC., priority 2016, dated 2022).
Where two headings read alike, the source gives them in different places. Each block holds one compound with its values, some of them ahead of it.

Molecular target: T1, NR2F6 (Homo sapiens, UniProt P10588)
T1 construct: expressed in transfected cells; also transient transfection
T1 sequence (P10588 1-404): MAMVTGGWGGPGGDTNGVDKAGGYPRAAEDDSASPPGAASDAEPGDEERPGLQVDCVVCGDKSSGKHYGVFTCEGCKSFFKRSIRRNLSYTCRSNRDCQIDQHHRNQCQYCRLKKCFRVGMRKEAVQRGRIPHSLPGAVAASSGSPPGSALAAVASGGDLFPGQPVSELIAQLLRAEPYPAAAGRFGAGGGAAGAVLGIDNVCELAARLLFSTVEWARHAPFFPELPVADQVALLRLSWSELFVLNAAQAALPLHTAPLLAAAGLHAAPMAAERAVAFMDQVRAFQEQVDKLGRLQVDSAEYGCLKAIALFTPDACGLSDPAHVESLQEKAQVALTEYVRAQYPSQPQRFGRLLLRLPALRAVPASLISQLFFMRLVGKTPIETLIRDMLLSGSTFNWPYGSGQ
Test: NR2F6 agonist screening, Firefly signal cmpd/DMSO
Format: cell-based
Parameters: Firefly NR2F6 full length, cmpd/DMSO (mean) / Firefly F4, cmpd/DMSO (mean): unit of the concentration uncertain
Details: for Firefly/Renilla (NR2F6 stable, clone F4): ratio Firefly/Renilla; for Firefly, NR2F6 stable (clone F4)/pGL4: ratio of Firefly in NR2F6 stable clone F4 to pGL4

[1] = C11 analogs follow set (Tables 2-10)
[2] = Concentration 2 (unit uncertain)
[3] = Concentration 10 (unit uncertain)
[4] = Concentration 40 (unit uncertain)

- Firefly, cmpd/DMSO repeat 1 [1]: 9.4
- Firefly, cmpd/DMSO repeat 2 [1]: 8.7
- Firefly/Renilla (NR2F6 stable, clone F4) (Table 13): 1.2
- Firefly, NR2F6 stable (clone F4)/pGL4 (Table 13): 5.0
- Firefly, cmpd/DMSO repeat 1 (Table 13): 9.4
- Firefly, cmpd/DMSO repeat 2 (Table 13): 8.7
Structure (SMILES): Cc1ccc(S(=O)(=O)c2cc3cc(Cl)ccc3oc2=O)cc1Cl [Compound C188]

- Firefly, cmpd/DMSO (mean): 1.5
Structure (SMILES): COc1ccccc1-c1noc(COc2nccc(C)n2)n1 [Compound Z149]

- Firefly, cmpd/DMSO repeat 1 [1]: 1.4
- Firefly, cmpd/DMSO repeat 2 [1]: 1.3
Structure (SMILES): O=c1oc2ccccc2cc1S(=O)(=O)c1ccc(Cl)c(Cl)c1 [Compound C106]

- Firefly, cmpd/DMSO repeat 1 [1]: 20.9
- Firefly, cmpd/DMSO repeat 2 [1]: 20.6
Structure (SMILES): Cc1ccc(NC(=O)c2ccc3oc(=O)c(S(=O)(=O)c4ccc(C)cc4)cc3c2)cc1 [Compound C162]

- Firefly, cmpd/DMSO repeat 1 [1]: 3.0
- Firefly, cmpd/DMSO repeat 2 [1]: 4.4
Structure (SMILES): COc1ccc2cc(S(=O)(=O)c3cccc(Cl)c3)c(=O)oc2c1 [Compound C281]

- Firefly, cmpd/DMSO repeat 1 (Table 11): 1.5
- Firefly, cmpd/DMSO repeat 2 (Table 11): 2.6
Structure (SMILES): COc1cc(Br)cc2cc(S(=O)(=O)c3ccc(C(C)(C)C)cc3)c(=O)oc12 [Compound C297]

- Firefly, cmpd/DMSO repeat 1 [1]: 2.5
- Firefly, cmpd/DMSO repeat 2 [1]: 2.8
Structure (SMILES): COc1ccc(S(=O)(=O)c2cc3cc(OC)ccc3oc2=O)cc1 [Compound C207]

- Firefly, cmpd/DMSO (mean): 1.0
- Firefly, cmpd/DMSO (mean) (Concentration 2): 1.3
- F4, cmpd/DMSO (mean) (Concentration 2): 1.2
- Firefly, cmpd/DMSO (mean) (Concentration 10): 1.1
- F4, cmpd/DMSO (mean) (Concentration 10): 1.5
- Firefly, cmpd/DMSO (mean) (Concentration 40): 0.9
- F4, cmpd/DMSO (mean) (Concentration 40): 1.2
Structure (SMILES): CC(=O)Nc1ccc(Cl)c2nonc12 [Compound Z113]

- Firefly, cmpd/DMSO repeat 1 (Table 9): 1.9
- Firefly, cmpd/DMSO repeat 2 (Table 9): 1.3
Structure (SMILES): COc1cccc2cc(S(=O)(=O)c3ccc(Cl)c(Cl)c3)c(=O)oc12 [Compound C245]

- Firefly F4, cmpd/DMSO (mean) [2]: 0.9
- Firefly NR2F6 full length, cmpd/DMSO (mean) [2]: 1.1
- Firefly F4, cmpd/DMSO (mean) [3]: 0.7
- Firefly NR2F6 full length, cmpd/DMSO (mean) [3]: 1.0
- Firefly F4, cmpd/DMSO (mean) [4]: 0.4
- Firefly NR2F6 full length, cmpd/DMSO (mean) [4]: 0.9
Structure (SMILES): Cc1ccc(S(=O)(=O)NCc2cn3cccc(C)c3n2)cc1C [Compound E41]

- Firefly, cmpd/DMSO repeat 1 [1]: 0.9
- Firefly, cmpd/DMSO repeat 2 [1]: 1.7
Structure (SMILES): COC(=O)c1ccc2oc(=O)c(S(=O)(=O)c3ccc(Cl)cc3)cc2c1 [Compound C15]

- Firefly, cmpd/DMSO repeat 1 [1]: 34.0
- Firefly, cmpd/DMSO repeat 2 [1]: 34.5
- Firefly/Renilla (NR2F6 stable, clone F4) (Table 13): 1.1
- Firefly, NR2F6 stable (clone F4)/pGL4 (Table 13): 13.1
- Firefly, cmpd/DMSO repeat 1 (Table 13): 34.0
- Firefly, cmpd/DMSO repeat 2 (Table 13): 34.5
Structure (SMILES): COc1ccc(NC(=O)c2ccc3oc(=O)c(S(=O)(=O)c4ccc(Cl)cc4)cc3c2)cc1 [Compound C180]

- Firefly, cmpd/DMSO (mean): 2.0
Structure (SMILES): COc1ccc(-c2noc(Cn3nccc(C)c3=O)n2)cc1 [Compound Z153]

- Firefly, cmpd/DMSO repeat 1 [1]: 35.4
- Firefly, cmpd/DMSO repeat 2 [1]: 39.0
- Firefly/Renilla (NR2F6 stable, clone F4) (Table 13): 1.3
- Firefly, NR2F6 stable (clone F4)/pGL4 (Table 13): 8.1
- Firefly, cmpd/DMSO repeat 1 (Table 13): 35.4
- Firefly, cmpd/DMSO repeat 2 (Table 13): 39.0
Structure (SMILES): Cc1ccc(NC(=O)c2ccc3oc(=O)c(S(=O)(=O)c4ccccc4)cc3c2)cc1 [Compound C161]

- Firefly, cmpd/DMSO repeat 1 [1]: 8.7
- Firefly, cmpd/DMSO repeat 2 [1]: 10.1
Structure (SMILES): COc1ccc(NC(=O)c2ccc3oc(=O)c(S(=O)(=O)c4ccc(F)cc4)cc3c2)cc1 [Compound C179]

- Firefly, cmpd/DMSO repeat 1 [1]: 5.8
- Firefly, cmpd/DMSO repeat 2 [1]: 7.0
Structure (SMILES): O=C(NCCc1ccccc1)c1ccc2oc(=O)c(S(=O)(=O)c3ccc(F)cc3)cc2c1 [Compound C113]

- Firefly, cmpd/DMSO repeat 1 [1]: 3.6
- Firefly, cmpd/DMSO repeat 2 [1]: 5.5
Structure (SMILES): O=c1oc2ccc(Cl)cc2cc1S(=O)(=O)c1ccc(Cl)c(Cl)c1 [Compound C151]

- Firefly/Renilla (NR2F6 stable, clone F4) (Table 13): 1.6
- Firefly, NR2F6 stable (clone F4)/pGL4 (Table 13): 4.3
- Firefly, cmpd/DMSO repeat 1 (Table 13): 9.8
- Firefly, cmpd/DMSO repeat 2 (Table 13): 7.4
Structure (SMILES): Cc1ccc2oc(=O)c(S(=O)(=O)c3cccc(Cl)c3)cc2c1 [Compound C300]

- Firefly, cmpd/DMSO repeat 1 [1]: 1.5
- Firefly, cmpd/DMSO repeat 2 [1]: 3.1
Structure (SMILES): COc1ccc2oc(=O)c(S(=O)(=O)c3ccc(F)c(C)c3)cc2c1 [Compound C225]

- Firefly, cmpd/DMSO repeat 1 [1]: 11.6
- Firefly, cmpd/DMSO repeat 2 [1]: 13.8
Structure (SMILES): O=c1oc2ccc(F)cc2cc1S(=O)(=O)c1ccc(Br)cc1 [Compound C215]

- Firefly, cmpd/DMSO repeat 1 [1]: 1.0
- Firefly, cmpd/DMSO repeat 2 [1]: 1.0
Structure (SMILES): COc1ccc2cc(S(=O)(=O)c3cc(C)cc(C)c3)c(=O)oc2c1 [Compound C260]
